The results in this text go back to patent US11352320B2 (Merck Sharp & Dohme Corp., priority 2018, dated 2022).

Structures are written as SMILES. Where a name gives a salt, the structure may show the parent alone.

Chain of IDO1 (P14902 whole entry): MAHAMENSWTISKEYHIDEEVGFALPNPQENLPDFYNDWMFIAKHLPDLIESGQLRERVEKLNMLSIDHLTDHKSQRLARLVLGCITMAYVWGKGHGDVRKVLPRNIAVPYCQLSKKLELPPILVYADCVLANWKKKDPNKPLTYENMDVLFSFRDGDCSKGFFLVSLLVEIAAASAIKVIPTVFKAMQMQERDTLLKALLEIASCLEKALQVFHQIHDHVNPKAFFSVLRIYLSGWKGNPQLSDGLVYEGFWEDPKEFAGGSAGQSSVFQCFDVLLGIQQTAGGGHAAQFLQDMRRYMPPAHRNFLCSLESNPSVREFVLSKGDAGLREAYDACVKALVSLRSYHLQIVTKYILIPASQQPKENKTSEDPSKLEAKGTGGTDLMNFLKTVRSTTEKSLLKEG

The assay deals with IDO1 (Homo sapiens, UniProt P14902). The assay is described as follows: IDO1 Cellular Assay in Hela Cells Stimulated with IFNγ. It counts as cell-based. More on the design: endogenous in cells; host or cells: HeLa cells stimulated with IFNγ. The settings on record: IFNγ 100 ng/mL, 300 uM L-tryptophan, about 48 hours, fluorescence readout, read-out: IDO1 HELA Cell Assay, IC50. How it is done:
Biological Assays IDO1 Cellular Assay in Hela Cells Stimulated with IFNγ
Hela cells were cultured in complete Hela culture medium (90% EMEM, 10% heat-inactivated fetal bovine serum) and expanded to about 1×10^9 cells. The cells were then collected and frozen down at 1×10^7 cells/vial in 1 mL frozen medium (90% complete Hela culture medium, 10% DMSO)
Compounds to be tested were serially diluted in ten 3-fold steps in DMSO starting from 10 mM DMSO stocks in Echo low volume plate(s). Compound dilutions or DMSO alone were then dispensed from the dilution plate(s) into Greiner black 384-well assay plate(s) (catalog #781086, 50 nL/well) using an Echo 550 acoustic liquid handler (Labcyte).
Frozen Hela cells were thawed and transferred into Hela assay medium (99% complete Hela culture medium, 1% Pen/Strep) with 20 mL medium/vial of cells. The cells were spun down at 250 g in a table top centrifuge for 5 min and suspended in same volume of Hela assay medium. The cells were then counted and adjusted to a density of 2×10^5 cells/ml in Hela assay medium. Sterile L-tryptophan were added to the cells with final concentration of 300 uM L-tryptophan. A small aliquot (2 mL/plate) of Hela cells were set aside and were not treated with IFNγ, to serve as the Max-E control. The rest of Hela cells were added with sterile IFNγ (Cat #285-IF, R & D systems) with a final concentration of 100 ng/mL.
Hela cells with and without IFNγ were dispensed to the respective wells of 384-well assay plates containing the compounds. The plates were incubated for about 48 hours at a 37° C., 5% CO2 incubator. Afterwards, 12 μL of 0.5 M methyl isonipecotate in dimethyl sulfoxide were added into each well and the plates were sealed and incubated at 37° C. without CO2 overnight. The plates were centrifuged for 1 min at 200×g. The resulting fluorescence was measured in a Spectramax plate reader (Molecular Devices) with a 400 nm excitation filter and a 510 nm emission filter.
The fluorescence intensity of each well was corrected for the background observed in wells with non-IFNγ-treated cells and was expressed as a fraction of the intensity observed in wells of IFNγ-treated cells and DMSO only. Potencies were calculated by linear least squares fit to the four parameter logistic IC50 equation.
Compounds disclosed herein generally have IC50 of about 1 nM to about 1,000 nM, or more specifically, about 2 nM to about 800 nM, or more specifically, about 5 nM to about 600 nM, or still more specifically, about 10 nM to about 500 nM. Such a result is indicative of the intrinsic activity of the compounds in use as an inhibitor of an IDO enzyme.
By IC50 is commonly meant the concentration needed to halve the response being measured. Turning to `C[C@H](C(=O)Nc1ccc(F)cc1)C12CC(NCc3cccc(Cl)c3)(C1)C2` [Example 28, (S)-2-(3-((3-chlorobenzyl)amino)bicyclo[1.1.1]pentan-1-yl)-N-(4-fluorophenyl)propanamide, TFA], the IC50 was 25.7 nM.

For the compound `CC(C(=O)Nc1ccc(F)cc1)C12CC(Nc3ncccc3C(F)(F)F)(C1)C2` (stereo not shown) [Example 20, N-(4-fluorophenyl)-2-(3-{[3-(trifluoromethyl)pyridin-2-yl]amino}bicyclo[1.1.1]pentan-1-yl)propanamide], the IC50 turned out to be 543 nM.

Consider `CC(C(=O)Nc1ccc(F)cc1)C12CC(Nc3ncc(C(F)(F)F)cc3F)(C1)C2` (stereo not shown) [Example 22, N-(4-fluorophenyl)-2-(3-{[3-fluoro-5-(trifluoromethyl)pyridin-2-yl]amino}bicyclo[1.1.1]pentan-1-yl)propanamide], for which the IC50 is 166 nM.

In the case of `CC(C(=O)Nc1ccc(F)cc1)C12CC(Nc3nncc4ccccc34)(C1)C2` (stereo not shown) [Example 23, N-(4-fluorophenyl)-2-{3-[(phthalazin-1-yl)amino]bicyclo[1.1.1]pentan-1-yl}propanamide], the IC50 amounted to 183 nM.

`CC(C(=O)Nc1ccc(F)cc1)C12CC(Nc3cc(C(F)(F)F)ncn3)(C1)C2` (stereo not shown) [Example 16, N-(4-fluorophenyl)-2-(3-{[6-(trifluoromethyl)pyrimidin-4-yl]amino}bicyclo[1.1.1]pentan-1-yl)propanamide]: the IC50 was found to be 27.2 nM.

Consider `Cc1nc(NC23CC(C(C)C(=O)Nc4ccc(F)cc4)(C2)C3)ccc1C(F)(F)F` (stereo not shown) [Example 14, N-(4-fluorophenyl)-2-(3-{[6-methyl-5-(trifluoromethyl)pyridin-2-yl]amino}bicyclo[1.1.1]pentan-1-yl)propanamide], for which the IC50 was 52.4 nM.

For the compound `CC(C(=O)Nc1ccc(F)cc1)C12CC(Nc3ncnc4ccccc34)(C1)C2` (single isomer, unassigned) [Example 4, N-(4-fluorophenyl)-2-(3-(quinazolin-4-ylamino)bicyclo[1.1.1]pentan-1-yl)propanamide], the IC50 came out at 388 nM.

As for `CC(C(=O)Nc1ccc(F)cc1)C12CC(Nc3cccc(C(F)(F)F)n3)(C1)C2` (stereo not shown) [Example 26, N-(4-fluorophenyl)-2-(3-{[6-(trifluoromethyl)pyridin-2-yl]amino}bicyclo[1.1.1]pentan-1-yl)propanamide], the half-maximal inhibitory concentration (IC50) came out at 74.3 nM.

`C[C@H](C(=O)Nc1ccc(F)cc1)C12CC(N(C)Cc3ccc(Cl)c(Cl)c3)(C1)C2` [Example 33, (S)-2-(3-((3,4-dichlorobenzyl)(methyl)amino)bicyclo[1.1.1]pentan-1-yl)-N-(4-fluorophenyl)propanamide, TFA]: the IC50 was 8.86 nM.

As for `Cc1nc(NC23CC(C(C)C(=O)Nc4ccc(F)cc4)(C2)C3)c2cc(F)ccc2n1` (single isomer, unassigned) [Example 7], the IC50 was 17.7 nM.

`Cc1nccc(NC23CC([C@H](C)C(=O)Nc4ccc(Cl)cc4)(C2)C3)n1` (single isomer, unassigned) [Example 3, N-(4-chlorophenyl)-2-(3-((2-methylpyrimidin-4-yl)amino)bicyclo[1.1.1]pentan-1-yl)propanamide]: the IC50 came out at 428 nM.

Consider `CC(C(=O)Nc1ccc(F)cc1)C12CC(Nc3nc(Cl)nc4c3CCC4)(C1)C2` (single isomer, unassigned) [Example 8, 2-(3-((2-chloro-6,7-dihydro-5H-cyclopenta[d]pyrimidin-4-yl)amino)bicyclo[1.1.1]pentan-1-yl)-N-(4-fluorophenyl)propanamide], for which the IC50 is 330 nM.

On to `CC(C(=O)Nc1ccc(F)cc1)C12CC(Nc3ccc(C(F)(F)F)cn3)(C1)C2` (stereo not shown) [Example 15, N-(4-fluorophenyl)-2-(3-{[5-(trifluoromethyl)pyridin-2-yl]amino}bicyclo[1.1.1]pentan-1-yl)propanamide], for which the IC50 was 79 nM.

For the compound `Cc1nccc(NC23CC(C(C)C(=O)Nc4ccc(Cl)cc4)(C2)C3)n1` (racemic) [Example 1, N-(4-chlorophenyl)-2-(3-((2-methylpyrimidin-4-yl)amino)bicyclo[1.1.1]pentan-1-yl)propanamide], the IC50 was determined as 33.3 nM.

With `CC(C(=O)Nc1ccc(F)cc1)C12CC(Nc3ccnc(C(F)(F)F)n3)(C1)C2` (stereo not shown) [Example 25, N-(4-fluorophenyl)-2-(3-{[2-(trifluoromethyl)pyrimidin-4-yl]amino}bicyclo[1.1.1]pentan-1-yl)propanamide], the IC50 amounted to 94.1 nM.

`CC(C(=O)Nc1ccc(F)cc1)C12CC(Nc3c(C(F)(F)F)ccnc3F)(C1)C2` (stereo not shown) [Example 19, N-(4-fluorophenyl)-2-(3-{[2-fluoro-4-(trifluoromethyl)pyridin-3-yl]amino}bicyclo[1.1.1]pentan-1-yl)propanamide]: the IC50 stood at 11.9 nM.

In the case of `CC(C(=O)Nc1ccc(F)cc1)C12CC(Nc3ncc(C(F)(F)F)cc3F)(C1)C2` (stereo not shown) [Example 13, N-(4-fluorophenyl)-2-(3-{[3-fluoro-5-(trifluoromethyl)pyridin-2-yl]amino}bicyclo[1.1.1]pentan-1-yl)propanamide], the half-inhibitory concentration (IC50) is 138 nM.

With `Cc1nc(NC23CC(C(C)C(=O)Nc4ccc(F)cc4)(C2)C3)c2cc(F)ccc2n1` (single isomer, unassigned) [Example 6], the IC50 was found to be 590 nM.

`C[C@H](C(=O)Nc1ccc(F)cc1)C12CC(Nc3ccnc(C(F)(F)F)c3)(C1)C2` [Example 27, (S)—N-(4-fluorophenyl)-2-(3-((2-(trifluoromethyl)pyridin-4-yl)amino)bicyclo[1.1.1]pentan-1-yl)propanamide]: the IC50 turned out to be 4.83 nM.

Regarding `CC(C(=O)Nc1ccc(F)cc1)C12CC(Nc3nccnc3C(F)(F)F)(C1)C2` (stereo not shown) [Example 21, N-(4-fluorophenyl)-2-(3-{[3-(trifluoromethyl)pyrazin-2-yl]amino}bicyclo[1.1.1]pentan-1-yl)propanamide], the IC50 stood at 454 nM.

In the case of `CC(C(=O)Nc1ccc(F)cc1)C12CC(Nc3ccnc(C(F)(F)F)c3)(C1)C2` (stereo not shown) [Example 24, N-(4-fluorophenyl)-2-(3-{[2-(trifluoromethyl)pyridin-4-yl]amino}bicyclo[1.1.1]pentan-1-yl)propanamide], the IC50 is 12.6 nM.

Regarding `C[C@H](C(=O)Nc1ccc(F)cc1)C12CC(NCc3ccc(Cl)c(Cl)c3)(C1)C2` [Example 32, (S)-2-(3-((3,4-dichlorobenzyl)amino)bicyclo[1.1.1]pentan-1-yl)-N-(4-fluorophenyl)propanamide, TFA], the IC50 stood at 51.3 nM.

On to `CC(C(=O)Nc1ccc(F)cc1)C12CC(Nc3ncnc4ccc(F)cc34)(C1)C2` (single isomer, unassigned) [Example 10, N-(4-fluorophenyl)-2-(3-((6-fluoroquinazolin-4-yl)amino)bicyclo[1.1.1]pentan-1-yl)propanamide], for which the IC50 worked out at 208 nM.

For the compound `C[C@H](C(=O)Nc1ccc(F)cc1)C12CC(N(C)Cc3cccc(C(F)(F)F)c3)(C1)C2` [Example 31, (S)-N-(4-fluorophenyl)-2-(3-(methyl(3-(trifluoromethyl)benzyl)amino)bicyclo[1.1.1]pentan-1-yl)propanamide, TFA], the IC50 is 15.1 nM.

As to `CC(C(=O)Nc1ccc(F)cc1)C12CC(Nc3nc(Cl)nc4c3CCC4)(C1)C2` (single isomer, unassigned) [Example 9, 2-(3-((2-chloro-6,7-dihydro-5H-cyclopenta[d]pyrimidin-4-yl)amino)bicyclo[1.1.1]pentan-1-yl)-N-(4-fluorophenyl)propanamide], the half-maximal inhibitory concentration (IC50) was 11.1 nM.

Regarding `CC(C(=O)Nc1ccc(F)cc1)C12CC(Nc3cc(C(F)(F)F)ccn3)(C1)C2` (stereo not shown) [Example 18, N-(4-fluorophenyl)-2-(3-{[4-(trifluoromethyl)pyridin-2-yl]amino}bicyclo[1.1.1]pentan-1-yl)propanamide], the IC50 was 173 nM.

For `C[C@H](C(=O)Nc1ccc(F)cc1)C12CC(NCc3cccc(C(F)(F)F)c3)(C1)C2` [Example 30, (S)-N-(4-fluorophenyl)-2-(3-((3-(trifluoromethyl)benzyl)amino)bicyclo[1.1.1]pentan-1-yl)propanamide, TFA], the IC50 was 82.3 nM.

As for `Cc1nccc(NC23CC([C@H](C)C(=O)Nc4ccc(Cl)cc4)(C2)C3)n1` (single isomer, unassigned) [Example 2, N-(4-chlorophenyl)-2-(3-((2-methylpyrimidin-4-yl)amino)bicyclo[1.1.1]pentan-1-yl)propanamide], the IC50 was 33.3 nM.
